Experimental data from patent US11541051B2, “Compositions and methods for treating CDK4/6-mediated cancer” (Icahn School of Medicine at Mount Sinai, priority 2016, dated 2023).
“Also recorded” adds a separate entry of the source.

Tests used:
Assay type in all cases: cell-based
CDK4/6 [1] = assay: Western blot of CDK4 and CDK6 in MCF7 breast cancer cells treated with degraders (Example 12, FIG. 10 A); details: 1 or 5 μM, 24 h
Experimental: (§1) Breast cancer cell lines (MCF7, T47D, and ZR-75-1) and melanoma cell lines (A375, SK-MEL-2, SK-MEL-30, and WM1382) were cultured in the presence of DMEM or RPMI supplemented with 10% FBS in the presence of penicillin and streptomycin.
(§2) Protein concentrations were determined by BCA from cell lysates and equal amounts of protein are loaded to a Bis-Tris 4-12% gel. Gels were run at 80 V for 4 h using 1× running buffer (25 mM Tris, pH 8.3, […] glycine, 0.1% SDS). Proteins were transferred to a nitrocellulose membrane for 2 h at 100 V using transfer buffer (25 mM Tris, pH 8.3, […] glycine, 20% methanol). Ponceau S staining (0.1% Ponceau S, 1% acetic acid) was used to confirm transfer of proteins to the membrane followed by blocking of the membrane for 30 min at room temperature using blocking buffer (5% dry nonfat milk, 0.1% Tween, 0.02% sodium azide in TBS). The blocked membrane is incubated with primary antibodies (1:1000 dilution) in blocking buffer at 4° C. overnight. When primary phosphor-antibodies were used, then the membrane is incubated with 5% BSA instead of milk. The membrane was washed three times, 10 min each, with wash buffer (0.1% Tween in TBS) followed by incubation with secondary HRP conjugated antibody (1:5000 dilution) in 2.5% dry nonfat milk, 0.1% Tween in TBS for 1 h at room temperature. The membrane was washed three times, 10 min each, with wash buffer (0.1% Tween in TBS). Membranes are incubated with ECL for 1 min and proteins are detected after exposure to a blue autoradiographic film.
(§3) MCF7 breast cancer cells were treated with 1 or 5 μM XY019-095, XY019-098, XY019-0100, XY019-105A, XY019-105B, XY019-106, or XY019-108 for 24 h, then lysed and immunoblotted with antibodies to CDK4, CDK6, and actin (FIG. 10, panel A). […] T47D breast cancer cells were treated with 0.1, 0.3, 1, 3, 10, or 30 μM XY019-106 for 24 h, then lysed and immunoblotted with antibodies to phospho-Rb (pRB), CDK4, and actin (FIG. 10, panel B).

CDK4/6 [2] = assay: Characterization of CDK4/6 degraders/disruptors in various breast cancer and melanoma cells (summary, Examples 12 and 13)
Experimental: Specific exemplary abemaciclib-, ribociclib-, and palbociclib-based CDK4/6 degraders/disruptors were characterized in various different breast cancer and melanoma cells (Examples 12 and 13, FIGS. 10-23). […] This efficacy in suppressing CDK4/6 expression and CDK4/6 activity correlated with efficacy in inhibiting cancer cell proliferation.
as §2

CDK4/6 [3] = assay: Western blot of CDK4, CDK6 and phospho-Rb in SK-MEL-2 or A375 melanoma cells treated with degraders (Example 12, FIG. 11); details: SK-MEL-2 or A375 cells; 1 or 3 μM; 24 h
Experimental: as §1
as §2, with “The membrane was washed three times, 10 min each, with wash buffer (0.1% Tween in TBS) followed by incubation with secondary HRP conjugated antibody (1:5000 dilution) in 2.5% dry nonfat milk, 0.1% Tween in TBS for 1 h at room temperature. The membrane was washed three times, 10 min each, with wash buffer (0.1% Tween in TBS).” left out, “film. […]” for “film.”

CDK4/6 [4] = assay: Western blot of CDK4, CDK6 and phospho-Rb in A375 melanoma cells treated with degraders (Example 12, FIGS. 12, 13, 16, 18); details: 1 or 3 μM, 24 h
Experimental: as §1, §2
A375 melanoma cells (FIG. 13) were treated with 1 or 3 μM Ribociclib (RB), YX030-126, YX030-108, YX030-107, YX030-086, YX030-085 or XY028-133 for 24 h, then lysed and immunoblotted with antibodies to CDK4, CDK6, cyclin A, PLK1, phospho-Rb (pRb), and actin.
A375 melanoma cells (FIG. 16, panel A) were treated with 0.3 or 1 μM XY028-140, YX039-65, YX039-48, YX039-123, YX039-56, YX039-124 or YX039-147 for 24 h. A375 melanoma cells were treated with 1 or 3 μM XY028-140, YX039-56, YX039-65 or XY028-133 (FIG. 16, panel B). Cells were lysed and immunoblotted with antibodies to phospho-Rb (pRb), total Rb, PLK1, cyclin A, CDK4, CDK6, and actin.
A375 melanoma cells (FIG. 18) were treated with 1 or 3 μM XY028-133, YX044-18, YX044-22, XY028-140, YX044-19 or YX044-38 for 24 h, then lysed and immunoblotted with antibodies to phospho-Rb (pRb), total Rb, PLK1, cyclin A, CDK4, CDK6, and actin.

CDK4/6 [5] = assay: Western blot of CDK4/6 and phospho-Rb in T47D breast cancer cells treated with degraders (Example 12, FIGS. 10 B, 17, 19); details: 0.3 or 1 μM, 24 h
Experimental: as §1, §2, §3
T47D breast cancer cells (FIG. 17) were treated with 0.3 or 1 μM XY028-140, YX039-48, YX039-123, YX039-56, YX039-124, YX039-65, YX039-147 or YX039-74 for 24 h, then lysed and immunoblotted with antibodies to phospho-Rb (pRb), total Rb, PLK1, cyclin A, CDK4, CDK6, and actin.
T47D breast cancer cells (FIG. 19) were treated with 0.3 or 1 μM XY028-133, YX044-18, YX044-22, XY028-140, YX044-19 or YX044-38 for 24 h, then lysed and immunoblotted with antibodies to phospho-Rb (pRb), total Rb, PLK1, cyclin A, CDK4, CDK6, and actin.

T47D breast cancer cells = assay: Crystal violet staining (clonogenic assay) of T47D breast cancer cells (Example 13, FIGS. 22, 23); details: 11 days
Experimental: Cells were cultured for 7-11 days in the presence of different compounds. Media with compound was replenished every two days. At the end of the experiment, media was aspirated and viable cells were stained with 0.5% crystal violet dye.

Structure (SMILES): CC(=O)c1c(C)c2cnc(Nc3ccc(N4CCN(C(=O)COCCOCCOCC(=O)N[C@H](C(=O)N5C[C@H](O)C[C@H]5C(=O)NCc5ccc(-c6scnc6C)cc5)C(C)(C)C)CC4)cn3)nc2n(C2CCCC2)c1=O [XY019-098, (2S,4R)-1-((S)-14-(4-(6-((6-acetyl-8-cyclopentyl-5-methyl-7-oxo-7,8-dihydropyrido[2,3-d]pyrimidin-2-yl)amino)pyridin-3-yl)piperazin-1-yl)-2-(tert-butyl)-4,14-dioxo-6,9,12-trioxa-3-azatetradecanoyl)-4-hydroxy-N-(4-(4-methylthiazol-5-yl)benzyl)pyrrolidine-2-carboxamide]
- suppression of CDK4/6 expression (CDK4/6 [1]): especially effective in suppressing CDK4/6 expression even at 1 μM
- suppression of both CDK4/6 expression and CDK4/6 activity (summary) (CDK4/6 [2]): especially effective in suppressing both CDK4/6 expression and CDK4/6 activity

Structure (SMILES): CC(=O)c1c(C)c2cnc(Nc3ccc(N4CCN(C(=O)CCOCCOCCOCCNc5cccc6c5C(=O)N(C5CCC(=O)NC5=O)C6=O)CC4)cn3)nc2n(C2CCCC2)c1=O (centres unmarked) [XY019-108, 4-((2-(2-(2-(3-(4-(6-((6-acetyl-8-cyclopentyl-5-methyl-7-oxo-7,8-dihydropyrido[2,3-d]pyrimidin-2-yl)amino)pyridin-3-yl)piperazin-1-yl)-3-oxopropoxy)ethoxy)ethoxy)ethyl)amino)-2-(2,6-dioxopiperidin-3-yl)isoindoline-1,3-dione]
- suppression of CDK4/6 expression (CDK4/6 [1]): especially effective in suppressing CDK4/6 expression even at 1 μM
- suppression of both CDK4/6 expression and CDK4/6 activity (summary) (CDK4/6 [2]): especially effective in suppressing both CDK4/6 expression and CDK4/6 activity

Structure (SMILES): CC(=O)c1c(C)c2cnc(Nc3ccc(N4CCN(C(=O)CCOCCC(=O)N[C@H](C(=O)N5C[C@H](O)C[C@H]5C(=O)NCc5ccc(-c6scnc6C)cc5)C(C)(C)C)CC4)cn3)nc2n(C2CCCC2)c1=O [XY028-003, (2S,4R)-1-((S)-2-(3-(3-(4-(6-((6-acetyl-8-cyclopentyl-5-methyl-7-oxo-7,8-dihydropyrido[2,3-d]pyrimidin-2-yl)amino)pyridin-3-yl)piperazin-1-yl)-3-oxopropoxy)propanamido)-3,3-dimethylbutanoyl)-4-hydroxy-N-(4-(4-methylthiazol-5-yl)benzyl)pyrrolidine-2-carboxamide]
- efficacy in inhibiting both CDK4/6 expression and CDK4/6 activity (decreased Rb phosphorylation) (CDK4/6 [3]): efficacy of CDK4/6 degraders/disruptors, particularly XY019-106 and XY028-003
- suppression of both CDK4/6 expression and CDK4/6 activity (summary) (CDK4/6 [2]): especially effective in suppressing both CDK4/6 expression and CDK4/6 activity
- efficacy in inhibiting both CDK4/6 expression and CDK4/6 activity (decreased Rb phosphorylation) (CDK4/6 [4]): efficacy of CDK4/6 degraders, particularly XY028-133, XY028-140, XY019-106 and XY028-003

Structure (SMILES): CC(=O)c1c(C)c2cnc(Nc3ccc(N4CCN(C(=O)CNc5cccc6c5C(=O)N(C5CCC(=O)NC5=O)C6=O)CC4)cn3)nc2n(C2CCCC2)c1=O (centres unmarked) [XY028-140, 4-((2-(4-(6-((6-acetyl-8-cyclopentyl-5-methyl-7-oxo-7,8-dihydropyrido[2,3-d]pyrimidin-2-yl)amino)pyridin-3-yl)piperazin-1-yl)-2-oxoethyl)amino)-2-(2,6-dioxopiperidin-3-yl)isoindoline-1,3-dione]
- efficacy in inhibiting both CDK4/6 expression and CDK4/6 activity (decreased Rb phosphorylation) (CDK4/6 [5]): efficacy of CDK4/6 degraders, particularly XY028-140 and YX039-123; also recorded: efficacy of CDK4/6 degraders, particularly XY028-140 and YX044-22 and YX044-19
- suppression of both CDK4/6 expression and CDK4/6 activity (summary) (CDK4/6 [2]): especially effective in suppressing both CDK4/6 expression and CDK4/6 activity
- efficacy in inhibiting both CDK4/6 expression and CDK4/6 activity (decreased Rb phosphorylation) (CDK4/6 [4]): efficacy of CDK4/6 degraders, particularly XY028-133, XY028-140, XY019-106 and XY028-003
- inhibition of cancer cell proliferation compared with palbociclib (crystal violet staining) (T47D breast cancer cells; 0.003, 0.01 or 0.03 μM): inhibited cancer cell proliferation more effective that palbociclib at the same concentration
- inhibition of cancer cell proliferation compared with palbociclib (crystal violet staining) (T47D breast cancer cells; 0.03, 0.1, 0.3, 1 or 3 μM): inhibited cancer cell proliferation more effective that palbociclib at the same concentration

Structure (SMILES): CC(=O)c1c(C)c2cnc(Nc3ccc(N4CCN(C(=O)COc5cccc6c5CN(C5CCC(=O)NC5=O)C6=O)CC4)cn3)nc2n(C2CCCC2)c1=O (centres unmarked) [YX039-123, 3-(4-(2-(4-(6-((6-acetyl-8-cyclopentyl-5-methyl-7-oxo-7,8-dihydropyrido[2,3-d]pyrimidin-2-yl)amino)pyridin-3-yl)piperazin-1-yl)-2-oxoethoxy)-1-oxoisoindolin-2-yl)piperidine-2,6-dione]
- efficacy in inhibiting both CDK4/6 expression and CDK4/6 activity (decreased Rb phosphorylation) (CDK4/6 [5]): efficacy of CDK4/6 degraders, particularly XY028-140 and YX039-123
- suppression of both CDK4/6 expression and CDK4/6 activity (summary) (CDK4/6 [2]): especially effective in suppressing both CDK4/6 expression and CDK4/6 activity
- inhibition of cancer cell proliferation compared with palbociclib (crystal violet staining) (T47D breast cancer cells; 0.003, 0.01 or 0.03 μM): inhibited cancer cell proliferation more effective that palbociclib at the same concentration
- inhibition of cancer cell proliferation compared with palbociclib (crystal violet staining) (T47D breast cancer cells; 0.03, 0.1, 0.3, 1 or 3 μM): inhibited cancer cell proliferation more effective that palbociclib at the same concentration

Structure (SMILES): CC(=O)c1c(C)c2cnc(Nc3ccc(N4CCN(C(=O)CCCCCC(=O)N[C@H](C(=O)N5C[C@H](O)C[C@H]5C(=O)N[C@@H](C)c5ccc(-c6scnc6C)cc5)C(C)(C)C)CC4)cn3)nc2n(C2CCCC2)c1=O [YX044-22, (2S,4R)-1-((S)-2-(7-(4-(6-((6-acetyl-8-cyclopentyl-5-methyl-7-oxo-7,8-dihydropyrido[2,3-d]pyrimidin-2-yl)amino)pyridin-3-yl)piperazin-1-yl)-7-oxoheptanamido)-3,3-dimethylbutanoyl)-4-hydroxy-N-((S)-1-(4-(4-methylthiazol-5-yl)phenyl)ethyl)pyrrolidine-2-carboxamide]
- efficacy in inhibiting both CDK4/6 expression and CDK4/6 activity (decreased Rb phosphorylation) (CDK4/6 [5]): efficacy of CDK4/6 degraders, particularly XY028-140 and YX044-22 and YX044-19
